Data reported in patent US20070212707A1, “CELL CYCLE MARKERS” (GE HEALTHCARE UK LIMITED, priority 2004, published 2007).
“Also recorded” adds a separate entry of the source.

Assays:
[1] = test system: U2OS cells transiently expressing GFP-HDHB; assay: DNA damage response assay: GFP-HDHB nuclear focus formation; assay type: cell-based, human; settings: 20 μM etoposide, 10 μM camptothecin or 1 μM mitomycin C, 20 h, DMSO control, Triton X-100 extraction
Experimental: U2OS cells (80-90% confluent) were transfected with pGFP-HDHB according to the manufacturer's protocol (Lipofectamine 2000, Invitrogen). […] After 20 h, cells were extracted with Triton X-100 buffer and then fixed for immunofluorescence as described above. Distinctive GFP-HDHB nuclear foci were counted in more than 100 cells in each independent assay.
Moreover, DNA damage induces nuclear foci that are thought to contain damage-sensing and -processing proteins (Nelms et al., Science, (1998) 280, 590-592; van den Bosch et al. EMBO Rep., (2003), 4, 844-849).

[2] = test system: CRM1-mediated nuclear export; assay: Nuclear export block: subcellular localization of GFP-HDHB and FLAG-HDHB with or without LMB; assay type: cell-based, human; settings: asynchronous, G1 and S phase U2OS cells; 10 ng/ml LMB with 10 μM cycloheximide, 3 h
Experimental: In experiments to block nuclear protein export, cells were cultured for 3 h in DMEM containing 10 ng/ml of leptomycin B (LMB) (gift from Dr. M. Yoshida) and 10 μM cycloheximide (Calbiochem, San Diego, Calif.) to prevent new protein synthesis. Cells plated on glass coverslips were microinjected as described (Herbig et al., 1999) except that plasmid DNA rather than protein was injected.
To assess whether the putative NES in HDHB was functional, we mutated Val/Leu and Leu/Leu of the NES motif to alanine to create NES mutants 1 and 2 (FIG. 6A). GFP-HDHB and GFP-βGal-PSLD harboring these NES mutations were transiently expressed in either asynchronous or synchronized U2OS cells.

SMILES: CC[C@@]1(O)C(=O)OCc2c1cc1n(c2=O)Cc2cc3ccccc3nc2-1 [camptothecin]
- number of large GFP-HDHB nuclear foci per cell compared to the control [1]: more than doubled; also recorded: induced many more HDHB nuclear foci

SMILES: CO[C@@]12[C@H](COC(N)=O)C3=C(C(=O)C(C)=C(N)C3=O)N1C[C@@H]1N[C@@H]12 [Mitomycin C, mitomycin C]
- number of large GFP-HDHB nuclear foci per cell compared to the control [1]: little effect

SMILES: CCC(=C/[C@H](C)C/C=C/C(C)=C/[C@@H](C)C(=O)[C@@H](C)[C@H](O)[C@@H](C)C/C(C)=C/C(=O)O)/C=C/[C@@H]1OC(=O)C=C[C@@H]1C [LMB, leptomycin B]
- subcellular localization of GFP-HDHB and FLAG-HDHB fusion proteins in the presence of LMB [2]: both fusion proteins accumulated in the nucleus independently of the cell cycle
